{"source": "paper doi:10.1101/2024.08.19.608619", "about": "“Discovery of potent SARS-CoV-2 nsp3 macrodomain inhibitors uncovers lack of translation to cellular antiviral response” (bioRxiv, 2024)", "key": {"[1]": {"biological_target": "T1, SARS-CoV-2 nsp3-mac1 (Severe acute respiratory syndrome coronavirus 2, UniProt P0DTD1)", "experiment": "biochemical", "format": "biochemical", "details": "SARS-CoV-2 nsp3 macrodomain TR-FRET single point"}, "[2]": {"biological_target": "T1, SARS-CoV-2 nsp3-mac1", "experiment": "biochemical", "parameters": "SARS-CoV-2 nsp3 macrodomain TR-FRET single point, per cent inhibition, n=2"}, "[3]": {"details": "read-out: perc_inhibition_mean, batch_name=ASAP-0000473-001"}, "[4]": {"details": "read-out: perc_inhibition_mean, batch_name=ASAP-0000396-001"}, "[5]": {"details": "read-out: perc_inhibition_mean, batch_name=ASAP-0000276-001"}, "[6]": {"details": "read-out: perc_inhibition_mean, batch_name=ASAP-0000475-001"}, "[7]": {"details": "read-out: perc_inhibition_mean, batch_name=ASAP-0000277-001"}, "[8]": {"details": "read-out: perc_inhibition_mean, batch_name=ASAP-0000408-001"}, "[9]": {"details": "read-out: perc_inhibition_mean, batch_name=ASAP-0000403-001"}, "[10]": {"details": "read-out: perc_inhibition_mean, batch_name=ASAP-0000386-001"}, "[11]": {"details": "read-out: perc_inhibition_mean, batch_name=ASAP-0000397-001"}, "[12]": {"details": "read-out: perc_inhibition_mean, batch_name=ASAP-0000285-001"}, "[13]": {"details": "read-out: perc_inhibition_mean, batch_name=ASAP-0000323-001"}, "[14]": {"details": "read-out: perc_inhibition_mean, batch_name=ASAP-0000263-001"}}, "note": "Like-named read-outs stand apart in the source and are kept apart here.", "data": [{"molecule": "C[C@@H](Nc1ncnc2[nH]ccc12)c1cnn(CC2CCC2)c1", "note": "[ASAP-0000473]", "values": [{"measurement": "perc_inhibition_mean", "setting": "[1]; concentration 49.75 uM", "value": -0.451, "unit": "%"}, {"measurement": "perc_inhibition_mean", "setting": "[1]; concentration 99.5 uM", "value": 4.9, "unit": "%"}, {"measurement": "inhibition at 49.75 µM", "setting": "[2]; [3]", "value": -0.451, "unit": "%"}, {"measurement": "inhibition at 99.5 µM", "setting": "[2]; [3]", "value": 4.9, "unit": "%"}]}, {"molecule": "O=C(c1ccccc1)N1CCC(c2ccn3ncc(C(=O)N4CCCC[C@H](O)C4)c3c2)CC1", "note": "[ASAP-0000396]", "values": [{"measurement": "perc_inhibition_mean", "setting": "[1]; concentration 49.75 uM", "value": 17.833, "unit": "%"}, {"measurement": "perc_inhibition_mean", "setting": "[1]; concentration 99.5 uM", "value": 29.785, "unit": "%"}, {"measurement": "inhibition at 49.75 µM", "setting": "[2]; [4]", "value": 17.8, "unit": "%"}, {"measurement": "inhibition at 99.5 µM", "setting": "[2]; [4]", "value": 29.8, "unit": "%"}]}, {"molecule": "COc1cc(Nc2ncnc3[nH]ccc23)ccc1NC(C)=O", "note": "[ASAP-0000060]", "values": [{"measurement": "perc_inhibition_mean", "setting": "[1]; concentration 50.0 uM", "value": -7.761, "unit": "%"}, {"measurement": "inhibition at 50 µM", "setting": "[2]; read-out: perc_inhibition_mean, batch_name=ASAP-0000060-001", "value": -7.76, "unit": "%"}]}, {"molecule": "O=C(Cc1n[nH]c2c1CCCC2)Nc1cnc2[nH]ncc2c1", "note": "[ASAP-0000042]", "values": [{"measurement": "perc_inhibition_mean", "setting": "[1]; concentration 50.0 uM", "value": -1.262, "unit": "%"}, {"measurement": "inhibition at 50 µM", "setting": "[2]; read-out: perc_inhibition_mean, batch_name=ASAP-0000042-001", "value": -1.26, "unit": "%"}]}, {"molecule": "COC(=O)[C@]1(F)CCN(C(=O)c2ccc(NC(=O)Nc3ccccc3)cc2)C1", "note": "[ASAP-0000276]", "values": [{"measurement": "perc_inhibition_mean", "setting": "[1]; concentration 49.75 uM, n=2", "value": -0.893, "unit": "%"}, {"measurement": "perc_inhibition_mean", "setting": "[1]; concentration 99.5 uM, n=2", "value": 0.834, "unit": "%"}, {"measurement": "inhibition at 49.75 µM", "setting": "[2]; [5]", "value": -0.893, "unit": "%"}, {"measurement": "inhibition at 99.5 µM", "setting": "[2]; [5]", "value": 0.834, "unit": "%"}]}, {"molecule": "CC(C)(c1noc(-c2ncnc3[nH]ccc23)n1)S(C)(=O)=O", "note": "[ASAP-0000033]", "values": [{"measurement": "perc_inhibition_mean", "setting": "[1]; concentration 50.0 uM", "value": -0.756, "unit": "%"}, {"measurement": "inhibition at 50 µM", "setting": "[2]; read-out: perc_inhibition_mean, batch_name=ASAP-0000033-001", "value": -0.756, "unit": "%"}]}, {"molecule": "O=C1CN(c2ccc(Nc3ncnc4[nH]ccc34)cn2)CCN1", "note": "[ASAP-0000037]", "values": [{"measurement": "perc_inhibition_mean", "setting": "[1]; concentration 50.0 uM", "value": -16.793, "unit": "%"}, {"measurement": "inhibition at 50 µM", "setting": "[2]; read-out: perc_inhibition_mean, batch_name=ASAP-0000037-001", "value": -16.8, "unit": "%"}]}, {"molecule": "Cc1ncc(NCc2cc3n(n2)CCOC3)cc1C(N)=O", "note": "[ASAP-0000104]", "values": [{"measurement": "perc_inhibition_mean", "setting": "[1]; concentration 50.0 uM", "value": 0.46, "unit": "%"}, {"measurement": "inhibition at 50 µM", "setting": "[2]; read-out: perc_inhibition_mean, batch_name=ASAP-0000104-001", "value": 0.46, "unit": "%"}]}, {"molecule": "CC(C)[C@@H](CCN(C)C(=O)c1cc2c(s1)CC[C@H](C)C2)Nc1ncnc2[nH]ccc12", "note": "[ASAP-0000475]", "values": [{"measurement": "perc_inhibition_mean", "setting": "[1]; concentration 49.75 uM", "value": -9.684, "unit": "%"}, {"measurement": "perc_inhibition_mean", "setting": "[1]; concentration 99.5 uM", "value": -29.716, "unit": "%"}, {"measurement": "inhibition at 49.75 µM", "setting": "[2]; [6]", "value": -9.68, "unit": "%"}, {"measurement": "inhibition at 99.5 µM", "setting": "[2]; [6]", "value": -29.7, "unit": "%"}]}, {"molecule": "CN(Cc1cn(C)nn1)C(=O)c1cnn2ccc(C3CCN(C(=O)c4ccccc4)CC3)cc12", "note": "[ASAP-0000277]", "values": [{"measurement": "perc_inhibition_mean", "setting": "[1]; concentration 49.75 uM, n=2", "value": 2.174, "unit": "%"}, {"measurement": "perc_inhibition_mean", "setting": "[1]; concentration 99.5 uM, n=2", "value": 1.337, "unit": "%"}, {"measurement": "inhibition at 49.75 µM", "setting": "[2]; [7]", "value": 2.17, "unit": "%"}, {"measurement": "inhibition at 99.5 µM", "setting": "[2]; [7]", "value": 1.34, "unit": "%"}]}, {"molecule": "O=C(CCN(Cc1cccc(Cl)c1)C(=O)[C@@H]1CC1(F)F)N1CCNCC1", "note": "[ASAP-0000408]", "values": [{"measurement": "perc_inhibition_mean", "setting": "[1]; concentration 49.75 uM", "value": -2.073, "unit": "%"}, {"measurement": "perc_inhibition_mean", "setting": "[1]; concentration 99.5 uM", "value": -3.764, "unit": "%"}, {"measurement": "inhibition at 49.75 µM", "setting": "[2]; [8]", "value": -2.07, "unit": "%"}, {"measurement": "inhibition at 99.5 µM", "setting": "[2]; [8]", "value": -3.76, "unit": "%"}]}, {"molecule": "NC(=O)c1ccccc1NC(=O)c1ncnc2[nH]ccc12", "note": "[ASAP-0000044]", "values": [{"measurement": "perc_inhibition_mean", "setting": "[1]; concentration 50.0 uM", "value": -2.586, "unit": "%"}, {"measurement": "inhibition at 50 µM", "setting": "[2]; read-out: perc_inhibition_mean, batch_name=ASAP-0000044-001", "value": -2.59, "unit": "%"}]}, {"molecule": "O=C1CCN(C(=O)c2cnn3ccc(C4CCN(C(=O)c5ccccc5)CC4)cc23)CCN1", "note": "[ASAP-0000403]", "values": [{"measurement": "perc_inhibition_mean", "setting": "[1]; concentration 49.75 uM", "value": -2.402, "unit": "%"}, {"measurement": "perc_inhibition_mean", "setting": "[1]; concentration 99.5 uM", "value": -7.808, "unit": "%"}, {"measurement": "inhibition at 49.75 µM", "setting": "[2]; [9]", "value": -2.4, "unit": "%"}, {"measurement": "inhibition at 99.5 µM", "setting": "[2]; [9]", "value": -7.81, "unit": "%"}]}, {"molecule": "NC(=O)c1ncccc1C(=O)N1CCC(c2ccn3ncc(C(=O)N4CCCCC4)c3c2)CC1", "note": "[ASAP-0000386]", "values": [{"measurement": "perc_inhibition_mean", "setting": "[1]; concentration 49.75 uM", "value": 19.978, "unit": "%"}, {"measurement": "perc_inhibition_mean", "setting": "[1]; concentration 99.5 uM", "value": 36.045, "unit": "%"}, {"measurement": "inhibition at 49.75 µM", "setting": "[2]; [10]", "value": 20, "unit": "%"}, {"measurement": "inhibition at 99.5 µM", "setting": "[2]; [10]", "value": 36, "unit": "%"}]}, {"molecule": "O=C(OCC(Br)=C1CCOCC1)c1ncnc2[nH]ccc12", "note": "[ASAP-0000039]", "values": [{"measurement": "perc_inhibition_mean", "setting": "[1]; concentration 50.0 uM", "value": -5.359, "unit": "%"}, {"measurement": "inhibition at 50 µM", "setting": "[2]; read-out: perc_inhibition_mean, batch_name=ASAP-0000039-001", "value": -5.36, "unit": "%"}]}, {"molecule": "O=C(CCN(Cc1cccc(Cl)c1)C(=O)c1ncccc1Cl)N1CCNCC1", "note": "[ASAP-0000397]", "values": [{"measurement": "perc_inhibition_mean", "setting": "[1]; concentration 49.75 uM", "value": 2.753, "unit": "%"}, {"measurement": "perc_inhibition_mean", "setting": "[1]; concentration 99.5 uM", "value": 7.518, "unit": "%"}, {"measurement": "inhibition at 49.75 µM", "setting": "[2]; [11]", "value": 2.75, "unit": "%"}, {"measurement": "inhibition at 99.5 µM", "setting": "[2]; [11]", "value": 7.52, "unit": "%"}]}, {"molecule": "O=C(c1ncc[nH]1)N1CCC(c2ccn3ncc(C(=O)N4CCCCC4)c3c2)CC1", "note": "[ASAP-0000285]", "values": [{"measurement": "perc_inhibition_mean", "setting": "[1]; concentration 49.75 uM, n=2", "value": 18.474, "unit": "%"}, {"measurement": "perc_inhibition_mean", "setting": "[1]; concentration 99.5 uM, n=2", "value": 37.203, "unit": "%"}, {"measurement": "inhibition at 49.75 µM", "setting": "[2]; [12]", "value": 18.5, "unit": "%"}, {"measurement": "inhibition at 99.5 µM", "setting": "[2]; [12]", "value": 37.2, "unit": "%"}]}, {"molecule": "O=C(CCN(Cc1cccc(Cl)c1)C(=O)[C@@H]1CNCC12CC2)N1CCNCC1", "note": "[ASAP-0000323]", "values": [{"measurement": "perc_inhibition_mean", "setting": "[1]; concentration 49.75 uM, n=2", "value": 4.205, "unit": "%"}, {"measurement": "perc_inhibition_mean", "setting": "[1]; concentration 99.5 uM, n=2", "value": 2.382, "unit": "%"}, {"measurement": "inhibition at 49.75 µM", "setting": "[2]; [13]", "value": 4.21, "unit": "%"}, {"measurement": "inhibition at 99.5 µM", "setting": "[2]; [13]", "value": 2.38, "unit": "%"}]}, {"molecule": "Cn1nc(NC(=O)c2cc3nccn3c(=O)[nH]2)c2nccnc21", "note": "[ASAP-0000125]", "values": [{"measurement": "perc_inhibition_mean", "setting": "[1]; concentration 50.0 uM", "value": -1.913, "unit": "%"}, {"measurement": "inhibition at 50 µM", "setting": "[2]; read-out: perc_inhibition_mean, batch_name=ASAP-0000125-001", "value": -1.91, "unit": "%"}]}, {"molecule": "Cc1[nH]c2ncnc(NCc3ccco3)c2c1C", "note": "[ASAP-0000263]", "values": [{"measurement": "perc_inhibition_mean", "setting": "[1]; concentration 50.0 uM, n=2", "value": 16.967, "unit": "%"}, {"measurement": "perc_inhibition_mean", "setting": "[1]; concentration 100.0 uM, n=2", "value": 37.474, "unit": "%"}, {"measurement": "inhibition at 50 µM", "setting": "[2]; [14]", "value": 17, "unit": "%"}, {"measurement": "inhibition at 100 µM", "setting": "[2]; [14]", "value": 37.5, "unit": "%"}]}]}
